Read-outs that look alike come from different tables or passages of the source.
How the values were obtained:
[1] = biological target: 6xHis-tagged STLV-1 MarB43 integrase A219E (simian T-cell lymphotropic virus type 1 (STLV-1), isolate MarB43); test: pull-down
[2] = biological target: STLV-1 IN(A219E) as assembled into the intasome for cryo-EM (simian T-cell lymphotropic virus type 1 (STLV-1), isolate MarB43); test: cryo-EM structure
[3] = tested on: HTLV-1; test: MT-2-Jurkat cell-to-cell HTLV-1 infection, proviral load by qPCR; assay type: cell-based; conditions: HTLV-1 infection of Jurkat T cells
Protocol: Six of the most promising compounds were selected for assessment of their efficacy in inhibiting HTLV-1 viral infection. To this end, we employed an MT-2-Jurkat co-culture relying on cell-to-cell-based HTLV-1 transmission, which we successfully used in a previous study. In this assay format, the infection of Jurkat cells is measured via real-time quantitative PCR (qPCR) determination of the proviral load (PVL). […] A block in the integration reaction was confirmed by Alu-qPCR experiments (Supplementary Fig. 6). […] We suspect this is owing to a more efficient uptake of BIC than RAL by Jurkat T cells.
MT-2 and E6.1 Jurkat T-cell lines (ATCC) were used for the experiments. The cells were cultured at 37 °C with 5% CO2 and maintained in Roswell Park Memorial Institute (RPMI) media supplemented with 10% fetal bovine serum (FBS), 100 U penicillin, 100 μg/mL streptomycin and 0.25 μg/mL fungizone.
The HTLV-1 cell-to-cell infection was performed as previously described; Jurkat T cells were counted and diluted in complete RPMI to a final concentration of 0.25 × 10^6 cells/ml and pre-treated with INSTI drugs (final concentration ranging from 0.2 pM to 2 μM) or DMSO as a control for 24 h. MT-2 cells were resuspended in RPMI at a concentration of 2 × 10^6 cells/ml and subjected to a nonlethal γ-radiation dose of 400 Gy. Cells were resuspended at a concentration of 2 × 10^6 cells/ml in serum-free RPMI supplemented with the corresponding INSTI drug. Co-culture of 0.5 × 10^6 for each cell line was carried out for 16 h, after which cells were washed in PBS and resuspended in 1 ml of depletion buffer (PBS, 0.1% FBS and 2 mM EGTA). MT-2 cells were depleted from the culture by means of anti-CD25 magnetic beads (DynabeadsTM CD25, Thermo Fisher). Depletion efficiency was confirmed via flow cytometry as described previously. Jurkat cells were cultured for 2 weeks in complete RPMI supplemented with the drugs and genomic DNA was extracted (DNeasy kit, Qiagen) and stored at −20 °C for subsequent analysis. All the experiments were done in triplicate.
The PVL was measured as previously described[9],[53],[54]. Jurkat genomic DNA was quantified and diluted to a concentration of 5 ng/μL. Real-time qPCR analysis were conducted on 20 ng of gDNA to measure the level of HTLV-1 tax and gapdh genes (Supplementary Table 5). For the standard curve, the gDNA from an HTLV-1 naturally infected T-cell clone (clone 11.50, courtesy of professor Charles Bangham), which has one copy of tax and two of gapdh, was used. The integrated provirus copy number was calculated as follows: (tax copy numbers)/(2×gapdh copy number)[53], and normalised to the DMSO-treated control which was set to 100%. The PVL data were fitted to a dose–response curve in Prism 7 and the EC50 was calculated. Alu-PCR was performed as previously described in ref. [55]. In brief, the first PCR reaction was done with Phusion polymerase starting from 80 ng of gDNA using the ALU-specific primers (Alu-F/Gag-R). The nested PCR was run diluting the amplificated product 1:50. The reaction was done as a qPCR using Gag-specific primers (Gag-R/Gag-F) and the Luna SYBR dye reaction mix (New England Biolabs). The integrated provirus copy numbers were normalised to GAPDH and Jurkat cells treated with DMSO and infected with HTLV-1 were set to 100%. Experiments were done in triplicate.

[4] = tested on: HTLV-1; conditions: cited from earlier work
[5] = tested on: STLV-1 intasome; test: EMSA of stability (retention) of assembled STLV-1 intasome; conditions: three hours of incubation with the drug
Protocol: The donor DNA (vDNA) that mimics the 3′-processed LTR of STLV-1 DNA was preassembled by annealing Atto-680-labelled MarB43_U5_S30UP and MarB43_U5_S30B oligonucleotides (Supplementary Table 4) in 100 mM Tris pH 7.4, 400 mM NaCl. In all, 16 μg of STLV-1 IN or its mutants were co-incubated with 38.4 μg of LEDGF/ΔIBD-B56γ at 4 °C for 30 min to allow binding. Samples were then supplemented with 0.5 μL 20 μM Atto680-labelled vDNA, and sufficiently diluted to give a final NaCl concentration of 60 mM. This was immediately placed in a 37 °C heating block for 10 min. The sample was then returned to room temperature (RT) and any precipitate was resolubilised by the addition of NaCl to a final concentration of 1.2 M. After equilibration of the samples at RT for 10 min, the samples were either immediately supplemented with 10 μg/mL heparin or, where stated, were incubated further or additional reagents/INSTIs were added, as described. Samples, supplemented with 10 μg/mL heparin, devoid of loading dye were carefully loaded onto a 3% low melting point agarose gel containing 10 μg/mL heparin and electrophoresed, avoiding overheating. Densitometry analysis was carried out in ImageJ v1.50i. Measurements from at least three independent experiments were taken. Standard deviations and p values were calculated in Prism 9.
Supplementary Figure 10 | STLV-1 IN A219E binds more B56g and stabilises the deltaretroviral intasome. a, Pulldown of LEDGF/ΔIBD-B56γ by wild type His6-STLV-1 IN and its mutants. Mutations introduced in the IN:B56 binding interface can strengthen the interaction. b, A219E-mutated STLV-1 IN increases the amount of intasome assembled in vitro in an EMSA assay, compared to wild type IN. Values are normalised to wild type STLV-1 IN. c, EMSA study of the effect of addition of BIC on the stability (retention) of the assembled STLV-1 intasome after three hours of incubation with the drug. Values shown represent percentage of intasome retained as compared to intasome assayed by EMSA straight after assembly. Averages and standard deviations are shown for two independent biological replicates. Primary data from pull-down assays and EMSA is also included below each panel. The red arrow indicates the intasome band. INSTI, integrase strand transfer inhibitor. Source data are provided as a Source Data File.
(1 picture or pasted object on this page, not shown here)

[6] = tested on: HIV-1; conditions: HIV-1 infection model; supplementary ref 18; read-out: HIV-1 EC50 ± stdev; cited from earlier work
[7] = biological target: T1, recombinant HTLV-1 IN (Human T-cell leukemia virus 1, UniProt P03362); conditions: previously obtained values, read-out: HTLV-1 IN strand transfer IC50, cited from earlier work
T1 construct: made in house

Question: For “LEDGF/ΔIBD-B56γ (from UniProt Q13362 11-380)”, which fold B56γ recovered against WT IN [1] is on record?
Answer: 2 fold

Question: Which stoichiometry N [2] does the source give for “STLV-1 IN(A219E) as assembled into the intasome for cryo-EM (enzyme)” here?
Answer: 4

Question: With `O=C(NCc1c(F)cc(F)cc1F)c1cn2c(c(O)c1=O)C(=O)N1[C@H]3CC[C@H](C3)O[C@@H]1C2` [Bictegravir] as the compound, how does the “improvement in EC50 compared with RAL” value [3] read?
Answer: 20 fold

Question: What about the EC50 ([4]; MT-2-Jurkat cell-to-cell infection, read-out: HTLV-1 EC50) of the same compound?
Answer: 0.3 ± 0.173 nM

Question: What about the EC50 ([4]; Replicate 1, previously reported values, read-out: HTLV-1 infection EC50) of the same compound?
Answer: 0.54 nM

Question: What about the EC50 ([4]; Replicate 2, previously reported values, read-out: HTLV-1 infection EC50) of the same compound?
Answer: 0.44 nM

Question: What about the “percentage of intasome retained” value ([5]; 1 uM, Replicate 1) of the same compound?
Answer: 54.7791%

Question: And the “percentage of intasome retained” value ([5]; 1 uM, Replicate 2)?
Answer: 56.5068%

Question: What about the “percentage of intasome retained” value ([5]; 50 uM, Replicate 1) of the same compound?
Answer: 73.5691%

Question: What about the “percentage of intasome retained” value ([5]; 50 uM, Replicate 2) of the same compound?
Answer: 117.429%

Question: What about the “percentage of intasome retained” value ([5]; 50 uM, Replicate 3) of the same compound?
Answer: 83.837%

Question: What about the EC50 [6] of the same compound?
Answer: 1.6 ± 0.4 nM

Question: And the IC50 ([7]; Replicate 1)?
Answer: 163 nM

Question: And the IC50 ([7]; Replicate 2)?
Answer: 136 nM

Question: And the IC50 ([7]; Replicate 3)?
Answer: 212 nM

Reference: PMC8370991, “Structural basis for the inhibition of HTLV-1 integration inferred from cryo-EM deltaretroviral intasome structures” (Nature Communications, 2021)
